Consider 17 compounds from ChEMBL document CHEMBL3044600 (Biochem Syst Ecol, 2008).

Data set [1] deals with Lactuca sativa. The data set can be described thus: Phytotoxicity against Lactuca sativa var. Carrascoy (lettuce) assessed as inhibition of radicle length at 50 ug/cm2 after 24 to 144 hr. It is filed as functional.
For data set [2], the system named is Spodoptera littoralis. Nature of the data set: Antifeedant activity against Spodoptera littoralis sixth-instar larvae fed on compound treated Solanum tuberosum leaves assessed as inhibition of feeding. Format: functional, organism-based.
Data set [3] has as its system Spodoptera littoralis. Nature of the data set: Antifeedant activity against Spodoptera littoralis L6 larvae assessed as biomass gain orally dosed with 40 ug after 72 hr relative to untreated control. It is filed as functional.
Data set [4] can be described thus: Toxicity against Cricetulus griseus CHO (Chinese hamster ovary) cell by MTT assay. It is filed as cell-based. The note with it: CHO cells. (In general: Formazan colour is commonly taken as a measure of viable cells.)
The test system of data set [5] is Leptinotarsa decemlineata. The data set can be described thus: Antifeedant activity against Leptinotarsa decemlineata adults fed on compound treated Capsicum annuum leaves assessed as inhibition of feeding. Format: functional, organism-based.
Data set [6] in a line: Toxicity against Spodoptera frugiperda (fall armyworm) Sf9 cells by MTT assay. Format: cell-based.
Data set [7] concerns Spodoptera littoralis. The data set can be described thus: Antifeedant activity against Spodoptera littoralis L6 larvae assessed as food consumption level orally dosed with 40 ug after 72 hr relative to untreated control. It is filed as functional.
Data set [8] deals with Lactuca sativa. Nature of the data set: Phytotoxicity against Lactuca sativa var. Carrascoy (lettuce) assessed as inhibition of seed germination at 50 ug/cm2 after 24 hr. It is filed as functional, organism-based.
Another data set relates to Rhopalosiphum padi. The data set can be described thus: Antifeedant activity against Rhopalosiphum padi adults fed on compound treated Hordeum vulgare annuum leaves assessed as feeding level at 50 ug/cm2 (reference value: 47 to 64%). It is filed as functional.
For a further data set, the system named is Myzus persicae. The data set can be described thus: Antifeedant activity against Myzus persicae (green peach aphid) adults fed on compound treated […] annuum leaves assessed as feeding level at 50 ug/cm2 (reference value: 43 to 70%). Format: functional.
The subject of data set [9] is Lactuca sativa. The data set can be described thus: Phytotoxicity against Lactuca sativa var. Carrascoy (lettuce) assessed as inhibition of seed germination at 50 ug/cm2 after 48 hr. It is filed as functional, organism-based.
Data set [10] relates to Lactuca sativa. Nature of the data set: Phytotoxicity against Lactuca sativa var. Carrascoy (lettuce) assessed as inhibition of seed germination at 50 ug/cm2 up to 144 hr. Format: functional, organism-based.
In data set [11] the test system is Lactuca sativa. The data set can be described thus: Phytotoxicity against Lactuca sativa var. Carrascoy (lettuce) assessed as inhibition of seed germination at 50 ug/cm2 after 96 hr. It is filed as functional, organism-based.
Data set [12] has as its system Lactuca sativa. Nature of the data set: Phytotoxicity against Lactuca sativa var. Carrascoy (lettuce) assessed as inhibition of seed germination at 50 ug/cm2 after 72 hr. Format: functional, organism-based.

The structures appear in SMILES notation. Converted amounts (≈) assume the structure as drawn. The source made the active and inactive calls. No cut-off for these calls is given here. Where only a bound is given, the exact number is not on record here.

As usually defined, the inhibition is the drop in the measured response relative to a control, in per cent. Take `C=C1C(=O)O[C@@H]2CCN3CC=C(COC(=O)[C@](C)(O)[C@H](C)[C@H]1C)[C@H]23`: the inhibition at 50 µg/cm2 in the data set on Lactuca sativa [1] was < 50%. In addition, the EC50 in the data set with Spodoptera littoralis [2] was > 50 microg/cm2; in [4], 13.2 µg/mL (≈ 39.4 µM); in [5] it was > 50 microg/cm2; in data set [6], > 100 µg/mL. In addition, the results for the Activity in the data set with Spodoptera littoralis [3] and in the data set with Spodoptera littoralis [7] were 90% and 98%, respectively.

As for `C/C=C1\C[C@@H](C)[C@](O)(CO)C(=O)OCC2=CCN3CC[C@@H](OC1=O)[C@@H]23` (stereo in doubt; 7), the inhibition entry in the data set with Lactuca sativa [8] was “Active”.

`C/C=C1/C[C@@H](C)[C@](O)(CO)C(=O)OCC2=CCN3CC[C@@H](OC1=O)[C@@H]23` (stereo in doubt; 7) [RETRORSINE]: the EC50 in [4] was > 100 µg/mL.

As for `C/C=C1\C[C@@H](C)[C@](O)(CO)C(=O)OCC2=CCN3CC[C@@H](OC1=O)[C@@H]23` (stereo in doubt; 7) [RETRORSINE], the Activity in the data set on Rhopalosiphum padi is recorded as 46%; with Myzus persicae, 44%; in the data set with Spodoptera littoralis [3], 90%; with Spodoptera littoralis [7], 88%. Moreover, the EC50 (in the data set with Spodoptera littoralis [2]; in [5]) was > 50 microg/cm2 each time.

As to `C/C=C1\C[C@@H](C)[C@](O)(CO)C(=O)OCC2=CCN3CC[C@@H](OC1=O)[C@@H]23` (stereo in doubt; 8), in the data set on Lactuca sativa [8], the inhibition entry is “Active”.

Take `C/C=C1\C[C@@H](C)[C@](O)(CO)C(=O)OCC2=CCN3CC[C@@H](OC1=O)[C@@H]23` (stereo in doubt; 8) [RETRORSINE]: the Activity in the data set on Rhopalosiphum padi came to 40%; with Myzus persicae it was 30%; in the data set on Spodoptera littoralis [3], 102%; in the data set on Spodoptera littoralis [7] it was 92%. Besides, the inhibition at 50 µg/cm2 in the data set with Lactuca sativa [1] is < 50%. The EC50 in data set [4] and in data set [6] was > 100 µg/mL throughout.

Turning to `C/C=C1/C[C@@H](C)[C@@](C)(OC(C)=O)C(=O)OC/C2=C/CN(C)CC[C@@H](OC1=O)C2=O` [ACETYLSENKIRKINE], the Activity was found to be 42% in the data set on Rhopalosiphum padi, 35% in the data set with Myzus persicae, 100% in the data set with Spodoptera littoralis [3] and 88% in the data set with Spodoptera littoralis [7]. The inhibition result with Lactuca sativa [8] and in the data set on Lactuca sativa [9] was “Active” in each case. The inhibition at 50 µg/cm2 in the data set on Lactuca sativa [1] is < 50%. In addition, the EC50 (in the data set with Spodoptera littoralis [2]; in data set [5]) was > 50 microg/cm2 each time.

For `C/C=C1\C[C@@H](C)[C@](O)(COC(C)=O)C(=O)OCC2=CCN3CC[C@@H](OC1=O)[C@@H]23` [ACETYLUSARAMINE], the inhibition entry in the data set with Lactuca sativa [8] is “Active”. Besides, the inhibition at 50 µg/cm2 in the data set with Lactuca sativa [1] was < 50%. Further, the Activity in the data set on Myzus persicae is on record as 40%; in the data set with Spodoptera littoralis [3] it was 60%; with Spodoptera littoralis [7] it was 106%. Moreover, the EC50 in data set [4] and in data set [6] was > 100 µg/mL throughout.

Take `C/C=C(/C)C(=O)O[C@@H]1CC[N+]2([O-])CC=C(COC(=O)[C@@](O)([C@H](C)O)C(C)(C)O)[C@H]12` (stereo not given in full) [ECHIMIDINE N-OXIDE]: the Activity with Rhopalosiphum padi is on record as 43%; in the data set with Myzus persicae, 40%; in the data set on Spodoptera littoralis [3], 102%; in the data set on Spodoptera littoralis [7], 113%. The EC50 (with Spodoptera littoralis [2]; in data set [5]) was > 50 microg/cm2 throughout.

On to `C/C=C(/C)C(=O)O[C@@H]1CCN2CC=C(COC(=O)[C@@](O)([C@H](C)O)C(C)(C)O)[C@H]12` [ECHIMIDINE], for which the Activity with Rhopalosiphum padi is given as 36%; with Myzus persicae, 40%; in the data set with Spodoptera littoralis [3] it was 118%; in the data set on Spodoptera littoralis [7], 165%. Further, the EC50 in the data set on Spodoptera littoralis [2] was > 50 microg/cm2; in data set [5], 1.4 microg/cm2.

For the compound `C/C=C1/C[C@@]2(CO)O[C@@]2(C)C(=O)OCC2=CCN3CC[C@@H](OC1=O)[C@@H]23` [ERUCIFOLINE], the Activity came to 43% with Rhopalosiphum padi, 31% in the data set with Myzus persicae, 106% in the data set with Spodoptera littoralis [3] and 102% in the data set with Spodoptera littoralis [7]. The inhibition result in the data set on Lactuca sativa [8] was “Active”. Besides, in the data set with Lactuca sativa [1], the inhibition at 50 µg/cm2 is < 50%. For the same compound, the EC50 (with Spodoptera littoralis [2]; in [5]) was > 50 microg/cm2 throughout.

Take `C/C=C1\C[C@@H](C)[C@@](C)(O)C(=O)OCC2=CCN3CC[C@@H](OC1=O)[C@@H]23` [INTEGERRIMINE]: the Activity in the data set on Rhopalosiphum padi stood at 43%; in the data set on Myzus persicae, 57%; in the data set on Spodoptera littoralis [3] it was 89%; in the data set on Spodoptera littoralis [7], 88%. Besides, the inhibition at 50 µg/cm2 with Lactuca sativa [1] is < 50%. Moreover, the EC50 in the data set on Spodoptera littoralis [2] was > 100 microg/cm2; in data set [4] it was > 100 µg/mL; in data set [5], 3.4 microg/cm2; in [6], > 100 µg/mL.

For the compound `C[C@H]1C(=O)O[C@@H]2CCN3CC=C(COC(=O)[C@](C)(O)[C@]1(C)O)[C@H]23` [MONOCROTALINE], the Activity in the data set with Rhopalosiphum padi came to 37%; in the data set with Myzus persicae, 49%; in the data set with Spodoptera littoralis [3], 47%; in the data set with Spodoptera littoralis [7] it was 98%. Further, the inhibition result in the data set with Lactuca sativa [8], in the data set with Lactuca sativa [9], with Lactuca sativa [10], with Lactuca sativa [11] and in the data set on Lactuca sativa [12] was “Active” each time. Further, the inhibition at 50 µg/cm2 with Lactuca sativa [1] is < 50%. Further, the EC50 with Spodoptera littoralis [2] was > 50 microg/cm2; in data set [4] it was > 100 µg/mL; in [5] it was > 50 microg/cm2; in [6] it was > 100 µg/mL.

As to `C/C=C1/C[C@@H](C)[C@@](C)(O)C(=O)OCC2=CCN3CC[C@@H](OC1=O)[C@@H]23` [SENECIONINE], the Activity in the data set on Rhopalosiphum padi was 40%; in the data set with Myzus persicae, 40%; with Spodoptera littoralis [3], 84%; in the data set on Spodoptera littoralis [7] it was 84%. Further, the inhibition at 50 µg/cm2 in the data set on Lactuca sativa [1] was < 50%. Also, the EC50 with Spodoptera littoralis [2] is > 50 microg/cm2; in data set [4], > 100 µg/mL; in data set [5] it was 1.3 microg/cm2; in [6], > 100 µg/mL.

As for `C=C1C/C(=C/C)C(=O)O[C@@H]2CCN3CC=C(COC(=O)[C@]1(C)O)[C@H]23` [SENECIPHYLLINE], the Activity in the data set with Rhopalosiphum padi stood at 42%; in the data set on Myzus persicae, 50%; in the data set with Spodoptera littoralis [3], 87%; in the data set with Spodoptera littoralis [7], 82%. The inhibition at 50 µg/cm2 in the data set on Lactuca sativa [1] was < 50%. Also, the EC50 in the data set with Spodoptera littoralis [2] was 50 microg/cm2; in data set [4] it was > 100 µg/mL; in data set [5], 1.7 microg/cm2; in data set [6], > 100 µg/mL.

As for `C/C=C1\C[C@@H](C)[C@@](C)(O)C(=O)OC/C2=C/CN(C)CC[C@@H](OC1=O)C2=O` [SENKIRKINE], the Activity turned out to be 53% in the data set on Rhopalosiphum padi, 35% with Myzus persicae, 116% in the data set with Spodoptera littoralis [3] and 105% in the data set with Spodoptera littoralis [7]. Further, the inhibition result in the data set on Lactuca sativa [8], with Lactuca sativa [9], in the data set on Lactuca sativa [11] and in the data set on Lactuca sativa [12] was “Active” throughout. Besides, the inhibition at 50 µg/cm2 with Lactuca sativa [1] was < 50%. The EC50 (with Spodoptera littoralis [2]; in data set [5]) was > 50 microg/cm2 throughout.

Turning to `C=C1C/C(=C\C)C(=O)O[C@@H]2CCN3CC=C(COC(=O)[C@]1(C)O)[C@H]23` [SPARTIOIDINE], the Activity turned out to be 42% in the data set on Rhopalosiphum padi, 35% with Myzus persicae, 90% in the data set with Spodoptera littoralis [3] and 97% with Spodoptera littoralis [7]. In the data set with Lactuca sativa [1], the inhibition at 50 µg/cm2 is < 50%. For the same compound, the EC50 in the data set on Spodoptera littoralis [2] was 0.2 microg/cm2; in data set [4] it was > 100 µg/mL; in data set [5], 4.8 microg/cm2; in data set [6] it was > 100 µg/mL.
